Data as given in patent publication US10306886B2, “Lactam solubility” (Conopco, Inc., priority 2015, dated 2019).

Experiment: Lactam solubility in water or water+alcohol (48 hours agitation, filtration, HPLC quantification)
Assay type: physicochemical
Parameters: key to Solubility Increase vs water alone: fold increase in dissolved lactam relative to water alone
Procedure: Excess solid lactam (˜3 mg) was placed in a Whatman® Mini Uniprep sample vial, fitted with a 0.45 μm nylon filter. Water or water+alcohol (500 μL) was added the mixture shaken and tapped briefly to initially disperse the solid and the mixture then agitated for 48 hours using a plate shaker fitted with a vial holder (see image below). After 48 hours, the solid was removed from the system by pressing down the plunger with integral filter on the vial (see image below). This removes the solid and provides filtered solution within the inner chamber which is then ready for analysis.
The level of lactam dissolved in solution was quantified using HPLC analysis. Samples were analysed on an Agilent 1200® series HPLC fitted with a Thermo Hypersil® Gold C18 column (15×2.1×3 μm), isocratic elution with 60/40 methanol/water (+0.1% Formic Acid), 0.4 mL/min flow rate, using a DAD detector at 285 nm. 4-(4-chlorophenyl)-5-methylene-pyrrol-2-one has a retention time of ˜2.8 minutes.
The absolute level of lactam in solution is measured and reported as an increase in solubility of lactam relative to water alone.

Q: For C=C1NC(=O)C=C1c1ccc(Cl)cc1 [4-(4-chlorophenyl)-5-methylene-pyrrol-2-one], which “Mean Lactam Level in Solution” value (EtOH 0% in water) is on record?
A: Its value is 6.2 ppm.

Q: What about the “Solubility Increase vs water alone” value (EtOH 0% in water) of the same compound?
A: The value was 1.00.

Q: And the “Mean Lactam Level in Solution” value (EtOH 0.5% in water)?
A: The value was 7.9 ppm.

Q: What about the “Solubility Increase vs water alone” value (EtOH 0.5% in water) of the same compound?
A: Its value is 1.27.

Q: And the “Mean Lactam Level in Solution” value (EtOH 1% in water)?
A: The value was 8.9 ppm.

Q: What about the “Solubility Increase vs water alone” value (EtOH 1% in water) of the same compound?
A: Its value is 1.44.

Q: What about the “Mean Lactam Level in Solution” value (EtOH 2% in water) of the same compound?
A: The value was 10.7 ppm.

Q: What about the “Solubility Increase vs water alone” value (EtOH 2% in water) of the same compound?
A: The value was 1.73.

Q: And the “Mean Lactam Level in Solution” value (EtOH 5% in water)?
A: The value was 13.4 ppm.

Q: What about the “Solubility Increase vs water alone” value (EtOH 5% in water) of the same compound?
A: Its value is 2.16.

Q: What about the “Mean Lactam Level in Solution” value (EtOH 10% in water) of the same compound?
A: The value was 18.3 ppm.

Q: What about the “Solubility Increase vs water alone” value (EtOH 10% in water) of the same compound?
A: The value was 2.95.

Q: And the “Mean Lactam Level in Solution” value (EtOH 25% in water)?
A: The value was 82.1 ppm.

Q: And the “Solubility Increase vs water alone” value (EtOH 25% in water)?
A: The value was 13.24.

Q: What about the “Mean Lactam Level in Solution” value (EtOH 50% in water) of the same compound?
A: Its value is 1800.2 ppm.

Q: And the “Solubility Increase vs water alone” value (EtOH 50% in water)?
A: The value was 290.35.

Q: And the “Mean Lactam Level in Solution” value (Glycerol 0% in water)?
A: Its value is 5.7 ppm.

Q: What about the “Solubility Increase vs water alone” value (Glycerol 0% in water) of the same compound?
A: The value was 1.00.

Q: And the “Mean Lactam Level in Solution” value (Glycerol 0.5% in water)?
A: Its value is 1.7 ppm.

Q: What about the “Solubility Increase vs water alone” value (Glycerol 0.5% in water) of the same compound?
A: The value was 0.29.

Q: What about the “Mean Lactam Level in Solution” value (Glycerol 1% in water) of the same compound?
A: Its value is 2.3 ppm.

Q: And the “Solubility Increase vs water alone” value (Glycerol 1% in water)?
A: The value was 0.41.

Q: What about the “Mean Lactam Level in Solution” value (Glycerol 2% in water) of the same compound?
A: Its value is 3.1 ppm.

Q: And the “Solubility Increase vs water alone” value (Glycerol 2% in water)?
A: Its value is 0.54.

Q: What about the “Mean Lactam Level in Solution” value (Glycerol 5% in water) of the same compound?
A: Its value is 5.2 ppm.

Q: What about the “Solubility Increase vs water alone” value (Glycerol 5% in water) of the same compound?
A: The value was 0.91.

Q: And the “Mean Lactam Level in Solution” value (Glycerol 10% in water)?
A: Its value is 9.0 ppm.

Q: And the “Solubility Increase vs water alone” value (Glycerol 10% in water)?
A: Its value is 1.59.

Q: And the “Mean Lactam Level in Solution” value (Glycerol 25% in water)?
A: The value was 15.8 ppm.

Q: And the “Solubility Increase vs water alone” value (Glycerol 25% in water)?
A: The value was 2.77.

Q: And the “Mean Lactam Level in Solution” value (Glycerol 50% in water)?
A: Its value is 95.3 ppm.

Q: What about the “Solubility Increase vs water alone” value (Glycerol 50% in water) of the same compound?
A: Its value is 16.72.

Q: And the “Mean Lactam Level in Solution” value (MeOH 0% in water)?
A: Its value is 6.2 ppm.

Q: And the “Solubility Increase vs water alone” value (MeOH 0% in water)?
A: Its value is 1.00.

Q: And the “Mean Lactam Level in Solution” value (MeOH 0.5% in water)?
A: Its value is 7.5 ppm.

Q: What about the “Solubility Increase vs water alone” value (MeOH 0.5% in water) of the same compound?
A: Its value is 1.20.

Q: And the “Mean Lactam Level in Solution” value (MeOH 1% in water)?
A: The value was 9.0 ppm.

Q: And the “Solubility Increase vs water alone” value (MeOH 1% in water)?
A: Its value is 1.45.

Q: And the “Mean Lactam Level in Solution” value (MeOH 2% in water)?
A: The value was 8.2 ppm.

Q: And the “Solubility Increase vs water alone” value (MeOH 2% in water)?
A: Its value is 1.32.

Q: What about the “Mean Lactam Level in Solution” value (MeOH 5% in water) of the same compound?
A: Its value is 10.4 ppm.

Q: And the “Solubility Increase vs water alone” value (MeOH 5% in water)?
A: The value was 1.67.

Q: What about the “Mean Lactam Level in Solution” value (MeOH 10% in water) of the same compound?
A: Its value is 15.7 ppm.

Q: And the “Solubility Increase vs water alone” value (MeOH 10% in water)?
A: Its value is 2.52.

Q: What about the “Mean Lactam Level in Solution” value (MeOH 25% in water) of the same compound?
A: The value was 48.8 ppm.

Q: What about the “Solubility Increase vs water alone” value (MeOH 25% in water) of the same compound?
A: The value was 7.87.

Q: What about the “Mean Lactam Level in Solution” value (MeOH 50% in water) of the same compound?
A: The value was 315.6 ppm.

Q: What about the “Solubility Increase vs water alone” value (MeOH 50% in water) of the same compound?
A: The value was 50.90.
